Read-outs that look alike come from different tables or passages of the source. Square brackets hold non-standard residues; d marks the D form. Ends that are not written are not given here. Peptide text beside a SMILES is read from it. AEEA = NCCOCCOCC(=O)O
Key:
[1] = tested on: Pseudomonas aeruginosa ATCC® 27853™; format: cell-based; parameters: Effects of Peptide Compounds on Pseudomonas aeruginosa ATCC ® 27853 ™: unit not given here; details: Table 6
Protocol: (§1) In vitro bactericidal activity: The three peptide compounds BCC01-5RMP (SEQ ID NO: 21), BCC02-5RMP (SEQ ID NO: 22), and BCC03-5RMP (SEQ ID NO: 23) were assayed for in vitro bactericidal activity against Pseudomonas aeruginosa, Escherichia coli, Salmonella typhimurium, and Acinetobacter baumannii. The starting inoculum for all experiments was 1×10^6 colony forming units (CFU)/ml. The CFU remaining at the end of 60 to 180 minute incubation was determined, and the data plotted as a log reduction in CFU/ml.
For FIGS. 10-13, in vitro bactericidal assays were performed using a starting inoculum of 1×10^6 CFU/ml of the bacterial suspension. The CFU remaining at the end of the 60-180 minute incubation was determined, and the data was plotted as log reduction in CFU/ml.
In particular, each of the test peptides (CAP37 peptides 120-146WR, 120-146WH, and 95-122 (SEQ ID NOs: 30, 31, and 26, respectively)) was used at 25, 12.5, 6.25, and 3.12 μM. Gentamicin was used at 4 μg/ml. 1×10^6/ml Acinetobacter baumannii ATCC® BAA-747™ or Pseudomonas aeruginosa ATCC® 27853™ (American Type Culture Collection, Manassas, Va.) were incubated with the peptides, negative buffer control (tryptone saline), and positive control gentamicin at pH 5.5 or 7.2. A 60 minute incubation was used for Acinetobacter baumannii ATCC® BAA-747™, while a 180 minute incubation was used for Pseudomonas aeruginosa ATCC® 27853™. 50 μl aliquots were plated out on agar plates and incubated overnight. Colony forming units were counted after overnight incubation and CFU/ml calculated.
For FIG. 14, 1×10^6/ml Pseudomonas aeruginosa ATCC® 27853™ were incubated with each of the test peptides (CAP37 peptides 120-146WR, 120-146WH, 120-146QR, 120-146QH, 120-146QR-5RMP, and 120-146QH-5RMP (SEQ ID NOs: 30, 31, 28, 29, 32, and 33, respectively)) at 150, 75, and 37.5 μg/ml, or negative buffer control (tryptone saline), for 180 minutes at pH 5.5. 50 μl aliquots were plated out on agar plates and incubated overnight. Colony forming units were counted after overnight incubation and CFU/ml calculated.

[2] = tested on: E. coli ATCC® strain 25922™; format: cell-based, Escherichia coli; parameters: unit not given here; details: Table 6
Protocol: as §1

[3] = tested on: human corneal epithelial cell (HCEC); assay: HCEC chemotaxis, modified Boyden chemotaxis chamber assay; format: cell-based; details: for HCEC migration versus buffer control: 120-146QH 10^−4 to 10^−10 M, 120-146QR 10^−6 and 10^−8 M, HB-EGF 50 ng/ml, rCAP37 250 ng/ml, 3 hours
Protocol: The effect of buffer control (0.1% BSA in Gey's buffer), heparin binding-epidermal growth factor (HB-EGF, 50 ng/ml), recombinant CAP37 (rCAP37, 250 ng/ml), 120-146QH ([…], 10^−10M, 10^−8M, 10^−4M, and 10^−4M,) and 120-146QR (10^−10M, 10^−8M, 10^−6M, and 10^−4M) on HCEC chemotaxis was determined by the modified Boyden chemotaxis chamber method. HCEC chemotaxis was measured in response to HB-EGF, rCAP37, and peptides 120-146QH (SEQ ID NO: 29) and 120-146QR (SEQ ID NO: 28) after incubation for 3 hours at 37° C. Chemotaxis is expressed as a percent migration. The buffer control (no chemoattractant) is arbitrarily assigned the value of 100% migration. Data are expressed as means±SEM and are calculated from 6 observations for each test point. **P<0.01 by Wilcoxon signed-rank test as compared to controls.
Chemotaxis assays were performed using the modified Boyden chemotaxis chamber assay. Peptide 120-146QH was used at 10^−4M, 10^−6M, 10^−8 M, 10^−10 M, and 10^−12M, and peptide 120-146QR was used at 10^−4M, 10^−6M, 10^−8 M, and 10^−10 M.

[4] = parameters: species or system male Sprague Dawley rats; details: rat, in vivo, iv
Protocol: The purpose of this example was to assess the pharmacokinetics, distribution, and excretion of ^14C-BCC03-5RMP (SEQ ID NO: 23) following a single intravenous administration to male rats. Pharmacokinetic, excretion, and distribution profiles of ^14C-BCC03-5RMP-derived radioactivity were examined in male Sprague Dawley rats following a single intravenous administration of ^14C-BCC03-5RMP (20 mg/kg; 125 μCi/kg). ^14C-BCC03-5RMP was formulated in 5% (v:v) dextrose in water, pH 5.5 and was administered at a dose volume of 5 mL/kg. For assessment of pharmacokinetics of total radioactivity (Group 1), blood was collected at 0.25, 0.5, 1, 2, 4, 8, 24, 48, and 72 hours postdose. For assessment of excretion profiles, urine was collected from 0-8 and 8-24 hours postdose, and at 24-hour intervals through 168 hours postdose. Feces was collected at 24-hour intervals through 168 hours postdose. For assessment of distribution profiles, one animal/time point was sacrificed at 0.25, 1, 4, 24, and 72 hours postdose, and the carcasses were prepared for quantitative whole-body autoradiography (QWBA). Concentrations of radioactivity in whole blood, plasma, urine, feces (after oxidation), cage rinse, cage wash, and carcass were determined by liquid scintillation counting (LSC). Tissue concentrations were calculated by interpolation from each standard curve using MCID™ analysis software (InterFocus Imaging Ltd Corp., UK). Pharmacokinetic parameters for total radioactivity in blood and plasma were calculated using WinNonlin Professional Edition (version 5.2, Pharsight Corporation, St. Louis, Mo.).

[5] = tested on: mouse cornea (corneal epithelial abrasion); assay: In vivo model of corneal wound healing; details: treated at 0 and 16 hours; 95-122 10^−5 M; 120-146WH 10^−8 M or 10^−6 M; HB-EGF 250 ng/ml
Protocol: The in vivo model of wound healing was carried out using a disposable biopsy punch (2 mm, Miltex, York, Pa.) to demarcate the mouse cornea and a 0.5 mm burr using the AlgerBrush II (The Alger Company, Inc., Lago Vista, Tex.) to remove the corneal epithelium.
Mice were anesthetized using ketamine (100 mg/kg; Bionichepharma, LLC., St. Lake Forrest, Ill.) and xylazine ([…]; Rompun; Bayer Corp., Shawnee Mission, Kans.), and the right cornea was wounded as follows. A disposable biopsy punch (2 mm, Miltex, York, Pa.) was used to demarcate the mouse cornea. The corneal epithelium was carefully removed within the 2 mm demarcated area with a 0.5 mm burr using the AlgerBrush II (The Alger Company, Inc., Lago Vista, Tex.). The corneal abrasions were treated at 0 and 16 hours with HB-EGF (250 ng/ml), rCAP37 (250 ng/ml), or vehicle control (0.9% sodium chloride, pH 5.5, Baxter, Deerfield, Ill.). Corneal abrasions were visualized using sterile fluorescein sodium ophthalmic strips USP (FLUORETS®, Chauvin Laboratory, Aubenas, France) dampened with sterile PBS. Images were taken at 0, 16, 24, and 48 hours immediately following fluorescein staining using a surgical microscope equipped with a camera (Carl Zeiss OPMI VISU 140, Carl Zeiss Surgical, Inc., Oberkochen, Germany). The areas of the open wound were quantitated using ImageJ software (US National Institutes of Health), and the results were reported as the percentage of wound closure.
Whole mouse eyes were collected for histology at 0, 6, 16, 24, and 48 hours post wounding and were immediately placed in Prefer fixative (Anatech LTD., Battle Creek, Mich.) for 20 minutes before being transferred to 70% ethanol. Tissues were paraffin-embedded and cut at a thickness of 5 μm, mounted on SUPERFROSTPLUS® slides (Statlab Medical Products, Lewisville, Tex.), and subsequently deparaffinized, rehydrated, and washed in deionized water. Sections were stained with hematoxylin (Leica Microsystems, Buffalo Grove, Ill.) and rinsed twice in deionized water before being washed in Blue Buffer (Leica Microsystems). The sections were finally washed in deionized water and 95% ethanol prior to being counterstained with eosin (Leica Microsystems). Sections were dehydrated in ethanol and cleared in xylene.

[6] = tested on: HCEC monolayers; assay: In vitro scratch assay of wound closure; format: cell-based, human; details: 250 ng/ml
Protocol: An in vitro scratch assay was used in order to determine the ability of rCAP37 to facilitate corneal wound healing. Human corneal epithelial cells were cultured as described above until they reached a confluent monolayer. Each monolayer was scratched using a 10 μl pipette tip to create two perpendicular lines. Monolayers were treated with heparin binding-epidermal growth factor (HB-EGF, 250 ng/ml; Becton Dickinson), rCAP37 (25-2000 ng/ml), or basal KSFM (Gibco). Wound closure was monitored at 0, 18, 24, and 48 hours utilizing a camera-equipped inverted microscope (TE2000-E; Nikon, Melville, N.Y.). Time-lapse images of in vitro wound closure were obtained using a camera-equipped inverted microscope (TE2000-E; Nikon) from 0-18 hours. HCEC monolayers were treated with HB-EGF, rCAP37, and basal KSFM as described above. The width of each scratch was quantitated using ImageJ software (US National Institutes of Health, Bethesda, Md.). Results are presented as the percentage of wound closure.

With “RRRRNQGRHFCGGALIHARFVMTAASCFQR (5-arginine peptide derivative of CAP37 peptide) [SEQ ID NO: 18 (Linear)]” as the molecule, how does the “Effects of Peptide Compounds on Pseudomonas aeruginosa ATCC ® 27853 ™” value ([1]; Peptide Conc 87.6 μg/ml) read?
The value was 100.0.

And the “Effects of Peptide Compounds on Escherichia coli ATCC ® 25922 ™” value ([2]; Peptide Conc 262.8 μg/ml)?
The value was 100.0.

Which “HCEC migration versus buffer control” value [3] does the source give for “GTRCQVAGWGSQHSGGRLSRFPRFVNV [Peptide 120-146QH]” here?
The value was “significantly increase migration”.

What about the “HCEC migration compared with whole CAP37 protein” value ([3]; 120-146QH at 10^−6 M and 10^−8 M) of the same molecule?
Its value is “comparable”.

Which results are given for “RRRRNQGRHFCGGALIHARFVMTAASCFQR (not fully specified; cysteine pairing not given here) [SEQ ID NO: 18 (Cyclized)]”?
Effects of Peptide Compounds on Pseudomonas aeruginosa ATCC ® 27853 ™ ([1]; Peptide Conc 3.125 μg/ml): 100.0; Effects of Peptide Compounds on Pseudomonas aeruginosa ATCC ® 27853 ™ ([1]; Peptide Conc 6.25 μg/ml): 100.0; Effects of Peptide Compounds on Pseudomonas aeruginosa ATCC ® 27853 ™ ([1]; Peptide Conc 12.5 μg/ml): 100.0; Effects of Peptide Compounds on Pseudomonas aeruginosa ATCC ® 27853 ™ ([1]; Peptide Conc 25 μg/ml): 100.0; Effects of Peptide Compounds on Pseudomonas aeruginosa ATCC ® 27853 ™ ([1]; Peptide Conc 50 μg/ml): 100.0; Effects of Peptide Compounds on Pseudomonas aeruginosa ATCC ® 27853 ™ ([1]; Peptide Conc 100 μg/ml): 100.0; Effects of Peptide Compounds on Pseudomonas aeruginosa ATCC ® 27853 ™ ([1]; Peptide Conc 200 μg/ml): 100.0; Effects of Peptide Compounds on Pseudomonas aeruginosa ATCC ® 27853 ™ ([1]; Peptide Conc 400 μg/ml): 100.0; Effects of Peptide Compounds on Escherichia coli ATCC ® 25922 ™ ([2]; Peptide Conc 25 μg/ml): 38.0; Effects of Peptide Compounds on Escherichia coli ATCC ® 25922 ™ ([2]; Peptide Conc 400 μg/ml): 82.0

Which “HCEC migration versus buffer control” value [3] does the source give for “GTRCQVAGWGSQRSGGRLSRFPRFVNV [Peptide 120-146QR]” here?
The value was “significantly increase migration”.

With CC[C@H](C)[C@H](NC(=O)[C@H](CC(C)C)NC(=O)[C@H](C)NC(=O)CNC(=O)CNC(=O)[C@H](CS)NC(=O)[C@H](Cc1ccccc1)NC(=O)[C@H](Cc1c[nH]cn1)NC(=O)[C@H](CCCNC(=N)N)NC(=O)CNC(=O)[C@H](CCC(N)=O)NC(=O)[C@H](CC(N)=O)NC(=O)[C@H](CCCNC(=N)N)NC(=O)[C@H](CCCNC(=N)N)NC(=O)[C@H](CCCNC(=N)N)NC(=O)[C@H](CCCNC(=N)N)NC(=O)COCCOCCNC(=O)COCCOCCN)C(=O)N[C@@H](Cc1c[nH]cn1)C(=O)N[C@@H](C)C(=O)N[C@@H](CCCNC(=N)N)C(=O)N[C@@H](Cc1ccccc1)C(=O)N[C@H](C(=O)N[C@@H](CCSC)C(=O)N[C@H](C(=O)N[C@@H](C)C(=O)N[C@@H](C)C(=O)N[C@@H](CO)C(=O)N[C@@H](CO)C(=O)N[C@@H](Cc1ccccc1)C(=O)N[C@@H](CCC(N)=O)C(=O)N[C@@H](CCCNC(=N)N)C(=O)O)[C@@H](C)O)C(C)C [^14C-BCC03-5RMP] (H-[AEEA][AEEA]RRRRNQGRHFCGGALIHARFVMTAASSFQR-OH; N-terminus assumed) as the molecule, how does the “administered radioactivity eliminated within the first 48 hours postdose” value [4] read?
The value was “approximately 55%”.

And the “Clearance of radioactivity in plasma compared to blood” value ([4]; 20 mg/kg)?
Its value is “approximately 2 fold”.

And the “exposure (AUC0-∞) in blood compared to plasma” value ([4]; 20 mg/kg)?
The value was “approximately 2 fold”.

What about the “volume of distribution of total radioactivity in blood compared to plasma” value ([4]; 20 mg/kg) of the same molecule?
The value was “approximately 1.6 fold”.

B1: HB-EGF: heparin binding-epidermal growth factor, used as the positive control (protein, UniProt Q99075 63-148, looked up)
Heparin-binding EGF-like …: DLQEADLDLLRVTLSSKPQALATPNKEEHGKRKKKGKGLGKKRDPCLRKYKDFCIHGECKYVKELRAPSCICHPGYHGERCHGLSL
Which “HCEC migration versus buffer control” value [3] does the source give for B1 here?
Its value is “significant increase in migration”.

And the “corneal wound healing versus vehicle” value [5]?
The value was “significantly higher”.

And the “time to complete closure of scratched monolayers” value [6]?
The value was no more than 24 h.

And the “percentage wound closure in vitro” value ([6]; at 18 hours)?
The value was roughly 88%.

Reference: US9862748B2, “Peptide compounds and methods of production and use thereof” (priority 2012, dated 2018)
